Source: publication PMC4829348 (Journal of medicinal chemistry, 2016)

Target: WT A/M2 protein (Influenza A virus, UniProt P0DOF5)
Test: biochemical
Conditions: read-out: % WT inhibition

Sequence of WT A/M2 protein (P0DOF5 whole entry): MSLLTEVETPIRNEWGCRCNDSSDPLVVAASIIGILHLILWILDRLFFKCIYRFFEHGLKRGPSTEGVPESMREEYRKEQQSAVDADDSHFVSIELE

| SMILES | inhibition at 100 µM |
| --- | --- |
| c1ccc(-c2nc(CNC34CC5CC(CC(C5)C3)C4)cs2)cc1 [26i] | 0% |
| Oc1ccc(NC23CC4CC(CC(C4)C2)C3)c(O)c1 [compound 5] | 64% |
